Like-named read-outs stand apart in the source and are kept apart here.
How the values were obtained:
in vitro = conditions: PAMPA, pH 7.4
Aβ40 = biological target: T1, Aβ40 (Homo sapiens, UniProt P05067); test: Inhibition of self-induced Aβ40 aggregation (ThT fluorescence, HFIP); type: biochemical; conditions: Aβ40 30 μM, mean ± SEM, n = 3; for inhibition at 100 µM: read-out: Aβ40 aggr % inhibition; for IC50: 2 h at 25 °C, PBS 2% HFIP, read-out: Aβ40 aggr IC50
T1 construct: samples of Aβ40 (30 μM) were coincubated for 2 h at 25 °C with test molecules; purchased EzBiolab, Carmel, IN, USA
T1 sequence (P05067 672-711 limits assumed): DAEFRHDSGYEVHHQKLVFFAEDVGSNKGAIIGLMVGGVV
Experimental: In vitro inhibition of Aβ40 aggregation was assessed following a previously reported thioflavin T (ThT) fluorescence-based method involving the use of hexafluoroisopropanol (HFIP) as aggregation enhancer. […].
In vitro inhibition assay of Aβ40 aggregation has been previously reported[41] and adapted to a 96-well plate platform.
(§1) After incubation in 96-well black, nonbinding microplates (Greiner Bio-One GmbH, Frickenhausen, Germany), thioflavin T (25 μM) was added and fluorimetric reads (ex 440, em 485 nm) were performed in a multiplate reader Infinite M1000 Pro (Tecan, Cernusco sul Naviglio, Italy). Experiments were run in triplicate. Results were expressed by statistical analysis while IC50 values were obtained by nonlinear regression using Prism software (GraphPad Prism version 5.00 for Windows, GraphPad Software, San Diego, CA, USA).

[1] = biological target: T2, eeAChE (AChE from electric eel) (Electrophorus electricus, UniProt O42275); test: biochemical; conditions: mean ± SEM, n = 3
T2 construct: purchased Sigma-Aldrich, Milan, Italy
T2 sequence (O42275 24-633): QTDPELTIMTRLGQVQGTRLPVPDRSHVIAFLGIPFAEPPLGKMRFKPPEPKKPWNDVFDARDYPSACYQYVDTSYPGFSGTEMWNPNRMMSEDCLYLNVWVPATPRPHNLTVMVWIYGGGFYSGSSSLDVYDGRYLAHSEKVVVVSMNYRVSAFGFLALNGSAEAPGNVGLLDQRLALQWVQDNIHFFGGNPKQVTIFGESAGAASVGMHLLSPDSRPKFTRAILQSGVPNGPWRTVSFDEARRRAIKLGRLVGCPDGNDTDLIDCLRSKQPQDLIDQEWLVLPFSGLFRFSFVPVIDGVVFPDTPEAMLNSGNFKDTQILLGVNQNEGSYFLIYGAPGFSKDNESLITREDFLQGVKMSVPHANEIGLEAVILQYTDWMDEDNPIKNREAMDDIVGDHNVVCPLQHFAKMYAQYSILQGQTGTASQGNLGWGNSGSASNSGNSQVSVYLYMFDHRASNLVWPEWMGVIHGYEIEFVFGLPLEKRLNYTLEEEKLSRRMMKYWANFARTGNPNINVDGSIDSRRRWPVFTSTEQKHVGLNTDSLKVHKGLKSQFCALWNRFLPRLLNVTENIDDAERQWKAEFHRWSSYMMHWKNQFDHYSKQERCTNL

[2] = biological target: T3, esBChE (BChE from equine serum) (Equus caballus, UniProt P81908); test: biochemical; conditions: mean ± SEM, n = 3
T3 construct: BChE from horse serum (13 U/mL); purchased Sigma-Aldrich, Milan, Italy; host or cells: horse serum
T3 sequence (P81908 whole entry): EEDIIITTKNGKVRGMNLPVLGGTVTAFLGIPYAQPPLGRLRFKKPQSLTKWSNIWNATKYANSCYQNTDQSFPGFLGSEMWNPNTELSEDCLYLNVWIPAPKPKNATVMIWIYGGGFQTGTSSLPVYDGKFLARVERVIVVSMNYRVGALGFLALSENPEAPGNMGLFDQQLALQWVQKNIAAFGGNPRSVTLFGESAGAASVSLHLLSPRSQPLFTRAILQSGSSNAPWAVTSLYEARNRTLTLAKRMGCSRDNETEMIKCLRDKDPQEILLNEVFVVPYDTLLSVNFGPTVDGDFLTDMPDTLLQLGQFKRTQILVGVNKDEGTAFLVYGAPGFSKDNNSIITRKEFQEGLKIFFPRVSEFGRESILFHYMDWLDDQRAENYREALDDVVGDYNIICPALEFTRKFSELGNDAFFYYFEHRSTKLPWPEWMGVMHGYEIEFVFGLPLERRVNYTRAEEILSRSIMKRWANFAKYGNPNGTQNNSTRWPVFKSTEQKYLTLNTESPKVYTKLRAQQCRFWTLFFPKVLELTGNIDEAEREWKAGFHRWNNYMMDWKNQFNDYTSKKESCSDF

hMAO A = biological target: T4, hMAO A (Homo sapiens, UniProt P21397); test: MAO A inhibition (fluorimetric kynuramine assay); type: biochemical; conditions: mean ± SEM, n = 3
T4 construct: purchased Sigma-Aldrich
T4 sequence (P21397 1-527): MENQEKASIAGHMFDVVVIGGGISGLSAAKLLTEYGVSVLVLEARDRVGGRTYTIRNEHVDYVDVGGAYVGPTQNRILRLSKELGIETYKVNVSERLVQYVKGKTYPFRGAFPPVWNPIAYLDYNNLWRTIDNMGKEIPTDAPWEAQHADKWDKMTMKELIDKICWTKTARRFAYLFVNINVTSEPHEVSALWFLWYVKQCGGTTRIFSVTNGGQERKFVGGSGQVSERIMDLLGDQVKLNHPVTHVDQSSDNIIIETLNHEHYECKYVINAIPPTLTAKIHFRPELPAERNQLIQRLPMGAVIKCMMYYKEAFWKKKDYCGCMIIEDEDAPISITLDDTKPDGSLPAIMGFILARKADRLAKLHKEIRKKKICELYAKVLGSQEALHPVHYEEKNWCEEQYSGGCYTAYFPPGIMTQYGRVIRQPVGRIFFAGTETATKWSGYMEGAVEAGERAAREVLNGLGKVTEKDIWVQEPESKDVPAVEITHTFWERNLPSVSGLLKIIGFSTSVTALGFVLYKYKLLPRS

MAO B [3] = biological target: T5, MAO B (Homo sapiens, UniProt P27338); test: MAO B inhibition (fluorimetric kynuramine assay, inhibition kinetics); type: biochemical; conditions: mean ± SEM, n = 3
T5 construct: purchased Sigma-Aldrich
T5 sequence (P27338 1-520): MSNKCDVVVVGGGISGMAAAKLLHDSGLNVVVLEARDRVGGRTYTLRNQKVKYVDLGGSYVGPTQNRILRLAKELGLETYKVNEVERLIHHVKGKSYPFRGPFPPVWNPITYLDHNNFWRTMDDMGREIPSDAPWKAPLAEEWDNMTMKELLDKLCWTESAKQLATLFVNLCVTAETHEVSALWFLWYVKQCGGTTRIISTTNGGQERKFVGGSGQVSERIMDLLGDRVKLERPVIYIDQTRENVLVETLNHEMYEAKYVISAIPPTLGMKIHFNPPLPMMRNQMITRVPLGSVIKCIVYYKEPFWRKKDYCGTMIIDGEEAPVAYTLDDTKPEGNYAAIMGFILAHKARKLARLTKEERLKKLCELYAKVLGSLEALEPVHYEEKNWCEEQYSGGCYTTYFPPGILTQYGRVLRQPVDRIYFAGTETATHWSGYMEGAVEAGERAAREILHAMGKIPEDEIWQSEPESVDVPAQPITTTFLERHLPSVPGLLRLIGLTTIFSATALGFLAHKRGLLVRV

cerebellar granule cells = test: In vitro cytotoxicity (MTT); type: cell-based; conditions: CGCs, compound 10 μM, 48 h, mean ± SEM
Experimental: . […] For a more meaningful assessment of the value of the present compounds, the issue of their toxicity, in comparison to established drugs for AD, should deserve further investigation.
Cerebellar granule cells were prepared from 8-day-old Sprague Dawley rats as described previously.[66] Cells were studied from the 6th to the 12th day in vitro. The experimental procedures and care of the animals were performed in compliance with the Directive of the EU Parliament and Council of September 22, 2010 (2010/63/EU) and were approved by the Italian Ministry of Health (COD. 75F11.N.6DX) in accordance with D.M. 116/1992. All efforts were made in order to minimize animal suffering and the number of animals necessary to obtain reliable results.
[…]. Cells were maintained in 5% CO2 at 37 °C. The cell viability was assessed by the MTT assay 48 h after the treatment. […]. The survival rates of viable cells were calculated by comparing the optical absorbance of treated samples with that of the untreated controls. All experiments were repeated at least three times independently, and data are expressed as the mean ± SEM.

Aβ42 = biological target: T6, Aβ42 (Homo sapiens, UniProt P05067); test: Inhibition of Aβ42 fibrillation by ThT fluorescence assay; type: biochemical; conditions: 100 and 5 μM, Aβ42 30 μM, 37 °C, 48 h
T6 construct: purchased EzBiolab, Carmel, IN, USA
T6 sequence (P05067 672-713 limits assumed): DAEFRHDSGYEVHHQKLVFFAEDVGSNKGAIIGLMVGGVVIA
Experimental: Its high propensity to self-aggregate allows a fast execution of aggregation assays without the need of aggregation enhancers as for Aβ40.
Quercetin (QUR) was used as reference compound.
as §1

AChE = test system: AChE; parameters: method as in PMID 25924599; conditions: first series; cited from earlier work
BChE = test system: BChE; parameters: method as in PMID 25924599; conditions: first series; cited from earlier work
MAO B [4] = biological target: T5, MAO B; test: MAO B kynuramine assay in spectrophotometric mode (4-hydroxyquinoline absorbance at 316 nm), incl. time course; type: biochemical; conditions: 100 nM inhibitor
[5] = based on the PAMPA-BBB classification range from Di et al.

CN(C)CCCN1c2ccccc2Sc2ccc(Cl)cc21 [Chlorpromazine]
Papp at 16 h (in vitro): 7.2 ×10⁻⁶ cm/s

Clc1cccc(Cl)c1N=C1NCCN1 [Clonidine]
Papp at 16 h (in vitro): 5.6 ×10⁻⁶ cm/s

O=C1C(Cl)=C(Nc2ccccc2)C(=O)c2ccccc21 [Compound 1]
inhibition at 100 µM (Aβ40): ~60% | inhibition at 10 µM ([1]; at 10 μM): 39% | inhibition at 10 µM [2]: 8% | inhibition at 10 µM (hMAO A): < 5% | inhibition at 10 µM (MAO B [3]): 22%

O=C1C(Cl)=C(NCCCc2ccccc2)C(=O)c2ccccc21 [Compound 4, 2-Chloro-3-(phenylpropylamino)-1,4-naphthoquinone]
IC50 (Aβ40): 8.2 ± 0.3 µM | IC50 [1]: 3.5 ± 0.3 µM | inhibition at 10 µM [2]: 35% | IC50 (hMAO A): 3 ± 0.2 µM | IC50 (MAO B [3]): 54 ± 1 nM

O=C1C(Cl)=C(NCCc2c[nH]c3ccccc23)C(=O)c2ccccc21 [Compound 5]
IC50 (Aβ40): 6.6 ± 0.1 µM | IC50 [1]: 8.7 ± 0.8 µM | inhibition at 10 µM [2]: 29% | IC50 (hMAO A): 5 ± 0.2 µM | IC50 (MAO B [3]): 110 ± 10 nM | cell viability vs control (%) (cerebellar granule cells): 85 ± 14% | CNS prediction [5]: CNS+ | Papp at 16 h (in vitro): 14.3 ± 1.3 ×10⁻⁶ cm/s

O=C1C(Cl)=C(NCCn2cnc3ccccc32)C(=O)c2ccccc21 [Compound 6, 2-[2-(1H-Benzimidazol-1-yl)ethylamino]-3-chloro-1,4-naphthoquinone]
IC50 (Aβ40): 19 ± 4 µM | IC50 [1]: 6.8 ± 0.7 µM | inhibition at 10 µM [2]: 24% | inhibition at 10 µM (hMAO A): 23% | inhibition at 10 µM (MAO B [3]): 24%

O=C1C(Cl)=C(NCCn2nnc3ccccc32)C(=O)c2ccccc21 [Compound 7, 2-{[2-(1H-Benzotriazol-1-yl)ethy]amino}-3-chloro-1,4-naphthoquinone]
IC50 (Aβ40): 8.7 ± 0.4 µM | IC50 [1]: 1.7 ± 0.1 µM | inhibition at 10 µM [2]: 15% | inhibition at 10 µM (hMAO A): 21% | IC50 (MAO B [3]): 480 ± 80 nM

O=C1C(Cl)=C(NC(Cc2ccccc2)C(=O)O)C(=O)c2ccccc21 (centres unmarked) [Compound 8]
IC50 (Aβ40): 17 ± 2 µM | IC50 [1]: 13 ± 2 µM | inhibition at 10 µM [2]: 14% | inhibition at 10 µM (hMAO A): 26% | IC50 (MAO B [3]): 2700 ± 800 nM | CNS prediction [5]: CNS+ | Papp at 16 h (in vitro): 6.1 ± 0.4 ×10⁻⁶ cm/s

O=C1C(Cl)=C(NC(Cc2c[nH]c3ccccc23)C(=O)O)C(=O)c2ccccc21 (centres unmarked) [Compound 9]
IC50 (Aβ40): 14 ± 2 µM | IC50 [1]: 11 ± 1 µM | inhibition at 10 µM [2]: 17% | inhibition at 10 µM (hMAO A): 22% | inhibition at 10 µM (MAO B [3]): 52%

O=C1c2ccccc2C(=O)c2c(NCc3ccccc3)cccc21 [Compound 10, 1-(Benzylamino)-9,10-anthraquinone]
inhibition at 100 µM (Aβ40): ~60% | IC50 [1]: 8.7 ± 0.5 µM | inhibition at 10 µM [2]: 24% | IC50 (hMAO A): 1.1 ± 0.3 µM | inhibition at 10 µM (MAO B [3]): 34%

O=C1c2ccccc2C(=O)c2c(NCCc3c[nH]c4ccccc34)cccc21 [Compound 13, 1-{[2-(1H-Indol-3-yl)ethyl]amino}-9,10-anthraquinone]
inhibition at 100 µM (Aβ40): ~60% | IC50 [1]: 1.85 ± 0.04 µM | inhibition at 10 µM [2]: 17% | inhibition at 10 µM (hMAO A): 25% | inhibition at 10 µM (MAO B [3]): 42%

O=C1c2ccccc2C(=O)c2c(NCCn3nnc4ccccc43)cccc21 [Compound 14, 1-{[2-(1H-Benzotriazol-1-yl)ethyl]amino}-9,10-anthraquinone]
IC50 (Aβ40): 11 ± 2 µM | IC50 [1]: 8.1 ± 0.5 µM | IC50 [2]: 3.4 ± 0.2 µM | inhibition at 10 µM (hMAO A): 53% | IC50 (MAO B [3]): 980 ± 140 nM | inhibition of Aβ42 aggregation (activity profile) (Aβ42): best activity profile

NCCc1ccc(O)c(O)c1 [Dopamine]
Papp at 16 h (in vitro): 0.6 ×10⁻⁶ cm/s

O=C1C=C(NC[C@@H]2CCCN3CCCC[C@H]23)C(=O)c2ccccc21 [I]
IC50 (AChE): 5800 nM

CCn1cc(C(=O)O)c(=O)c2cc(F)c(N3CCNC(C)C3)c(F)c21 (centres unmarked) [Lomefloxacin]
Papp at 16 h (in vitro): 1.5 ×10⁻⁶ cm/s

CCn1cc(C(=O)O)c(=O)c2cc(F)c(N3CCNCC3)cc21 [Norfloxacin]
Papp at 16 h (in vitro): 0.3 ×10⁻⁶ cm/s

CN1C(C(=O)Nc2ccccn2)=C(O)c2ccccc2S1(=O)=O [Piroxicam]
Papp (in vitro): 1.6 ×10⁻⁶ cm/s

CC(=O)[C@H]1CC[C@H]2[C@@H]3CCC4=CC(=O)CC[C@]4(C)[C@H]3CC[C@]12C [Progesterone]
Papp at 16 h (in vitro): 11.7 ×10⁻⁶ cm/s

O=C1C(Cl)=C(NCCCC2CCCN3CCCCC23)C(=O)c2ccccc21 (centres unmarked) [VI]
IC50 (AChE): 11 nM | IC50 (BChE): 12 µM

O=C1c2ccccc2C(=O)c2c(NCCCSC[C@@H]3CCCN4CCCC[C@H]34)cccc21 [XII]
IC50 (BChE): 1.1 µM

O=C1c2ccccc2C(=O)c2c(SC[C@@H]3CCCN4CCCC[C@H]34)cccc21 [XIV]
IC50 (AChE): 3800 nM | IC50 (BChE): 3.4 µM

O=C1c2ccccc2C(=O)c2c(NCC[C@@H]3CCCN4CCCC[C@H]34)cccc21 [X]
IC50 (AChE): 840 nM

C#CCN(C)Cc1ccccc1 [pargyline, reference compound]
MAO B enzymatic activity in time course (MAO B [4]; 1 h preincubation with enzyme): completely inhibited | time until MAO B enzymatic activity came to saturation (MAO B [4]; no preincubation): about 1 h

O=c1c(O)c(-c2ccc(O)c(O)c2)oc2cc(O)cc(O)c12 [quercetin, reference compound]
CNS prediction (PAMPA): CNS- | Papp at 16 h (in vitro): 0.14 ± 0.06 ×10⁻⁶ cm/s

— PMC7880572 (ACS Chemical Neuroscience, 2021)
